The record followed here is paper PMC9161449, “FUT8-Directed Core Fucosylation of N-glycans Is Regulated by the Glycan Structure and Protein Environment” (ACS Catalysis, 2021).

“And” between values parts separate entries of the source, which are not always exact repeats. Equal entries are not always repeated.

Assay [1] has as its target T1, human FUT8 (Homo sapiens, UniProt Q9BYC5).
T1 construct: made in house
T1 sequence (Q9BYC5 1-575): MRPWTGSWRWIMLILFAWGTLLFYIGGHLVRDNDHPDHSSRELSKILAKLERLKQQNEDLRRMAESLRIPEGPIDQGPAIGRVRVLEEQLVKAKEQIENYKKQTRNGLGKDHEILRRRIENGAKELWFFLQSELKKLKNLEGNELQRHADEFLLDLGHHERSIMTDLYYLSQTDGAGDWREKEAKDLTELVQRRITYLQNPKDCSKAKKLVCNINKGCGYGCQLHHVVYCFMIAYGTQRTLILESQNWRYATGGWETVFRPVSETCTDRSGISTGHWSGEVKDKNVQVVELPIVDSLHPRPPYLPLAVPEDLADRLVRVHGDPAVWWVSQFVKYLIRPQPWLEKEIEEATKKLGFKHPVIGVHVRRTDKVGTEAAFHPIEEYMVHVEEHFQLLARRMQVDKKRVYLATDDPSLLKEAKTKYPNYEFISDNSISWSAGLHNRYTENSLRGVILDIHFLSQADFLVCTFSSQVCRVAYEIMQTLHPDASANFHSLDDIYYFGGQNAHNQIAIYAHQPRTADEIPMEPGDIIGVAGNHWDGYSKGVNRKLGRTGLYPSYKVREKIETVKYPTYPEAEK
The assay can be described thus: Isothermal titration calorimetry (ITC) of ligands binding to FUT8. On the procedure:
(§1) The human FUT8 was purified as previously described.[12]
ITC was performed to characterize the interaction of FUT8 with GDP, G0, the G0-peptide, the M3N2-peptide, M3N2, and M5N2-Asn. All experiments were carried out in an Auto-iTC200 (Microcal, GE Healthcare) at 25 °C. The concentration of FUT8 was 70 μM and the ligand concentration ranged from 400 μM to 1 mM. The experiments used 25 mM Tris (pH 7.5) and 150 mM NaCl for the characterization of the binding of FUT8 against GDP and G0. To characterize the binding of FUT8 against all N-glycans in the presence of an excess of GDP, the conditions were 25 mM Tris (pH 7.5), 150 mM NaCl, and 1 mM GDP. The experiments were performed in duplicate. Data integration, correction, and analysis were carried out in Origin 7 (Microcal). The data were fitted to a one-site equilibrium-binding model.
A general note: Isothermal titration calorimetry measures the heat released or taken up as one component is titrated into another.

For assay [2], the target named is T1, human FUT8. The assay can be described thus: FUT8 enzyme kinetics, GDP-Glo luminescence assay. Type of assay: biochemical. On the procedure:
as §1
Enzyme kinetics for FUT8 were determined using GDP-Glo luminescence assays (Promega). Reactions contained 100 nM FUT8 in 25 mM Tris (pH 7.5), 150 mM NaCl, and 200 μM GDP-fucose in the presence of the ligands. The concentrations of G0, the G0-peptide, the M3N2-peptide, M3N2, and M5N2-Asn ranged from 5 μM to 1 mM. To determine the kinetic parameters for GDP-fucose, we used 100 nM FUT8 in 25 mM Tris (pH 7.5), 150 mM NaCl, and variable concentrations of GDP-fucose (from 5 to 500 μM) in the presence of 500 μM of G0. Reactions were incubated for 30 min at 37 °C and stopped using 5 μL of GDP-detection reagent at a 1:1 ratio in white and opaque 384-well plates. Then, the plates were incubated in the dark for 1 h at room temperature. Subsequently, the luminance values were obtained by using a Synergy HT plate reader (Biotek).
To estimate the amount of GDP produced in the glycosyltransferase reaction, we created a GDP standard curve. The values were corrected for enzyme hydrolysis in the absence of the substrate acceptor and fitted to a nonlinear Michaelis–Menten equation in GraphPad Prism 6 software from which the Km, kcat, and Vmax along with their standard deviations were obtained. All the experiments were performed in duplicate.

The target in assay [3] is T1, human FUT8. The assay can be described thus: FUT8 substrate specificity by MALDI-TOF MS. It counts as biochemical. To be noted: 18 μM FUT8, 18 h at RT (long incubation). On the procedure:
Solutions of the different N-glycan structures (1 nmol) were incubated with a FUT8 enzyme (18 μM) and GDP-fucose (2 nmol) in 25 mM Tris and 150 mM NaCl (pH 7.5) (total volume of 10 μL) for 18 h at RT. The reaction mixture was analyzed by MALDI-TOF mass spectrometry employing a solution of 2,5-dihydroxybenzoic acid (DHB, 5 mg/mL in CH3CN:0.1% TFA, 30:70, containing 0.05% NaCl) as a matrix. The MALDI-TOF spectra were recorded on an Ultraflextreme III time-of-flight mass spectrometer equipped with a pulsed Nd:YAG laser (355 nm) and controlled by FlexControl 3.3 software (Bruker Daltonics, Bremen, Germany). The m/z range was selected according to the mass of the sample and the acquired spectra were processed with FlexAnalysis 3.3 software (Bruker Daltonics, Bremen, Germany).

Assay [4] deals with T1, human FUT8. The assay can be described thus: STD NMR of ligands with FUT8. It counts as binding. Conditions: 20 μM FUT8, absence or presence of GDP (1 mM), 283 K. The method, then: All experiments were performed at a temperature of 283 K using a Bruker AVANCE-III 800 MHz spectrometer with a 5 mm TXI triple resonance probe with z axis pulse field gradients (5 mm PATXI 1H-13C/15N/D Z-GRD). The ligands, M3N2, the M3N2-peptide, the G0-peptide, and the naked peptide, had their labile protons exchanged with deuterium by dissolving in D2O, freeze-drying for three times, and finally dissolving at 5 mM in D2O. M3N2-peptide, G0-peptide, and naked peptide ^1H-NMR and ^13C-NMR signals were assigned using ^1H-^13C HSQC (hsqcedetgp), ^1H-^13C HSQC-TOCSY (hsqcgpmlph), TOCSY (mlevph), COSY (cosygmpfqf), and HMBC (hmbcgplpndqf). 2D-NOESY experiments were carried out for M3N2 and the M3N2-peptide using the Bruker pulse program noesygpph with mixing times (d8) of 100, 150, 200, 250, 300, 400, 600, 800, 1000, and 1500 ms. The relaxation time was set to 1 s. Fourier transform was applied to both dimensions and the corresponding horizontal traces were extracted for H1B (4.47 ppm) and H5A (3.42 ppm) in the case of the M3N2-peptide. […] Average H1A-H5A and H1B-H5B distances were calculated from the 1 μs MD simulation and used for the calculation according to the equation in Figure S9c.
STD NMR spectra were measured for the corresponding N-glycans in the presence of 20 μM FUT8 both with and without GDP (1 mM) using the Bruker pulse program stddiff.3. […]

In another assay the test system is CHO^KO:mgat1. The assay can be described thus: Site-specific N-glycan analysis of recombinant glycoproteins produced in CHO^KO:mgat1. Conditions: for Man5-GlcNAc2-Fuc/total / Man5-GlcNAc2/total: total = sum of top five glycopeptide intensities by LC–MS. Type of assay: cell-based.
For assay [5], the target named is human FUT8 (α-1,6-fucosyltransferase) (human) (UniProt Q9BYC5). As to the kind of experiment: ITC; Auto-iTC200, 25 °C; FUT8 70 μM, ligand 400 μM to 1 mM; 25 mM Tris pH 7.5, 150 mM NaCl, 1 mM GDP (excess GDP); one-site model; duplicate.
The mark [6] stands for this setting: excess GDP (1 mM), 25 °C, pH 7.5.
The mark [7] stands for this setting: GDP titrated into FUT8, 25 °C, pH 7.5.
Setting [8] is: 100 nM FUT8, 37 °C, 30 min, acceptors with 200 μM GDP-fucose, GDP-Fuc with saturating G0 (500 μM).

For the compound `CC(=O)N[C@@H]1[C@@H](O)[C@H](O[C@@H]2O[C@H](CO)[C@@H](O[C@@H]3O[C@H](CO[C@H]4O[C@H](CO)[C@@H](O)[C@H](O)[C@@H]4O[C@@H]4O[C@H](CO)[C@@H](O)[C@H](O)[C@H]4NC(C)=O)[C@@H](O)[C@H](O[C@H]4O[C@H](CO)[C@@H](O)[C@H](O)[C@@H]4O[C@@H]4O[C@H](CO)[C@@H](O)[C@H](O)[C@H]4NC(C)=O)[C@@H]3O)[C@H](O)[C@H]2NC(C)=O)[C@@H](CO)O[C@H]1NC(=O)C[C@H](NC(=O)[C@H](C)NC(=O)[C@@H](NC(=O)[C@@H](N)CCCCN)C(C)C)C(=O)N[C@@H](CCCCN)C(=O)N[C@H](C(=O)O)[C@@H](C)O` [G0-peptide], the dissociation constant Kd (usually the concentration at which binding is half-saturated) at human FUT8 [1] (setting [6]) is 10 ± 4 µM.
On to `Nc1nc2c(ncn2[C@@H]2O[C@H](COP(=O)(O)OP(=O)(O)O)[C@@H](O)[C@H]2O)c(=O)[nH]1` [GDP, reference compound], for which, on human FUT8 [1] (setting [7]), the dissociation constant Kd is 6.11 µM and 6.1 µM; the “n (stoichiometry of binding)” value came to 0.60; the ΔG entry is listed as “–7.09 ± 1.65 kcal/mol”; the ΔH entry was “–5.02 ± 0.4 kcal/mol”. Besides, the “–TΔS” value at human FUT8 [1] (setting [7]) was “–2.07 ± 0.48 kcal/mol”.
For the compound `C[C@@H]1O[C@H](OP(=O)(O)OP(=O)(O)OC[C@H]2O[C@@H](n3cnc4c(=O)[nH]c(N)nc43)[C@H](O)[C@@H]2O)[C@@H](O)[C@H](O)[C@@H]1O` [GDP-Fuc, GDP-β-L-fucose], at human FUT8 [2] (setting [8]), the Km (usually the concentration of substrate that gives half-maximal velocity) stood at 14.6 ± 3.4 µM, the Vmax worked out at 244.3 ± 13.1 nmol·min^–1·mg^–1 and the kcat is recorded as 14.17 ± 0.76 min^–1. Besides, on human FUT8 [2] (GDP-Fuc more efficient than G0), the “Catalytic efficiency of the transfer reaction relative to G0” value was around 10 fold.
`CC(=O)N[C@H]1[C@H](O[C@H]2[C@H](O)[C@@H](NC(C)=O)C(O)O[C@@H]2CO)O[C@H](CO)[C@@H](O[C@@H]2O[C@H](CO[C@H]3O[C@H](CO)[C@@H](O)[C@H](O)[C@@H]3O)[C@@H](O)[C@H](O[C@H]3O[C@H](CO)[C@@H](O)[C@H](O)[C@@H]3O)[C@@H]2O)[C@@H]1O` (some centres unmarked) [M3N2, Man3GlcNAc2 N-glycan oligosaccharide]: the “Binding to FUT8 by ITC” value at human FUT8 [1] (excess GDP (1 mM)) was “could not determine a Kd”. Also, the “Core fucosylation by FUT8, qualitative (MALDI-TOF MS)” value on human FUT8 [3] is listed as “very poorly glycosylated”. Moreover, the “STD NMR interaction with FUT8” value on human FUT8 [4] is on record as “no STD NMR signals were observed”. On human FUT8 [2] (acceptor 5 μM to 1 mM), the “FUT8 activity against acceptor substrate” value is “inactive”.
Turning to `CC(=O)N[C@@H]1[C@@H](O)[C@H](O[C@@H]2O[C@H](CO)[C@@H](O[C@@H]3O[C@H](CO[C@H]4O[C@H](CO)[C@@H](O)[C@H](O)[C@@H]4O)[C@@H](O)[C@H](O[C@H]4O[C@H](CO)[C@@H](O)[C@H](O)[C@@H]4O)[C@@H]3O)[C@H](O)[C@H]2NC(C)=O)[C@@H](CO)O[C@H]1NC(=O)C[C@H](NC(=O)[C@H](C)NC(=O)[C@@H](NC(=O)[C@@H](N)CCCCN)C(C)C)C(=O)N[C@@H](CCCCN)C(=O)N[C@H](C(=O)O)[C@@H](C)O` [M3N2-peptide, Man3GlcNAc2 N-glycopeptide], the Kd on human FUT8 [1] (setting [6]) stood at 406 ± 159 µM.
In the case of `CC(=O)N[C@@H]1[C@@H](O)[C@H](O[C@@H]2O[C@H](CO)[C@@H](O[C@@H]3O[C@H](CO[C@H]4O[C@H](CO[C@H]5O[C@H](CO)[C@@H](O)[C@H](O)[C@@H]5O)[C@@H](O)[C@H](O[C@H]5O[C@H](CO)[C@@H](O)[C@H](O)[C@@H]5O)[C@@H]4O)[C@@H](O)[C@H](O[C@H]4O[C@H](CO)[C@@H](O)[C@H](O)[C@@H]4O)[C@@H]3O)[C@H](O)[C@H]2NC(C)=O)[C@@H](CO)O[C@H]1NC(=O)C[C@H](N)C(=O)O` [M5N2-Asn, Man5GlcNAc2-Asn], the “Binding to FUT8 by ITC” value on human FUT8 [1] (excess GDP (1 mM)) is “could not observe a binding titration profile”. Further, the “Initial velocity, fold worse than that of G0 and the G0-peptide” value on human FUT8 [2] (1 mM acceptor substrate) was around 14 fold.
In the case of “EPO: recombinant erythropoietin expressed in CHO cells”, the Man5-GlcNAc2-Fuc/total in the assay on CHO^KO:mgat1 (EPO N-glycosite N51) is listed as 0.48; with CHO^KO:mgat1 (EPO N-glycosite N65), 0.90; with CHO^KO:mgat1 (EPO N-glycosite N110) it was 0.67. Besides, the Man5-GlcNAc2/total came to 0.52 in the assay with CHO^KO:mgat1 (EPO N-glycosite N51), 0.10 in the assay with CHO^KO:mgat1 (EPO N-glycosite N65) and 0.33 with CHO^KO:mgat1 (EPO N-glycosite N110). The “Core fucosylation of high-mannose N-glycan in KO mgat1” value with CHO^KO:mgat1 (N65 glycosite) is given as “almost exclusively core-fucosylated”. Further, in the assay on CHO^KO:mgat1 (all glycosites), the “Core fucosylation of high-mannose N-glycans in KO mgat1” value is “acquired core Fuc to some degree”.
In the case of “G0-peptide (KVANKT carrying the biantennary complex N-glycan G0 on Asn4)”, in assay [5], the dH is -3.2 kcal/mol and the stoichiometry N – broadly, the number of molecules, sites or subunits per partner or assembly – amounted to 0.84.
For “M3N2-peptide (Man3GlcNAc2 N-glycopeptide, KVANKT)” the same measures were 7.7 kcal/mol and 1.6.
